The text below walks through data of publication PMC9545129 (Chemmedchem, 2022).

Assay [1] deals with LAT1. As to conditions: cited from earlier work.
Assay [2] has as its target LAT1 (SLC7A5) (Homo sapiens, UniProt Q01650). Briefly: [3H]-L-leucine efflux assay in preloaded HT-29 cells. It is filed as cell-based. As to conditions: concentration not stated.

Sequence of LAT1 (SLC7A5) (Q01650 whole entry): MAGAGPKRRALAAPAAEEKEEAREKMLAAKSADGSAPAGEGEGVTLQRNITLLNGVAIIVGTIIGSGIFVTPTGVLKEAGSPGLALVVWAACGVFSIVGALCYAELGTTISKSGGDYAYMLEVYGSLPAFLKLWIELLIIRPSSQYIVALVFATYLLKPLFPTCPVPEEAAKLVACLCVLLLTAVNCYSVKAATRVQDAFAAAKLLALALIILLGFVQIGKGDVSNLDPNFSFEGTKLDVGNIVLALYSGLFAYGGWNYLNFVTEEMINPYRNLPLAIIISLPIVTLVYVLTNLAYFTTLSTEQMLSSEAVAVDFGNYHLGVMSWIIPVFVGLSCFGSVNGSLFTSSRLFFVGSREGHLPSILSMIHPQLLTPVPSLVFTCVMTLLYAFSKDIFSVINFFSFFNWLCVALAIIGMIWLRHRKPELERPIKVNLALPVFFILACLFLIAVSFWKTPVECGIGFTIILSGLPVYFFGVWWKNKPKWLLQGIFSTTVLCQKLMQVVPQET
Sequence of LAT1 (SLC7A5) (P08195 102-630 partner): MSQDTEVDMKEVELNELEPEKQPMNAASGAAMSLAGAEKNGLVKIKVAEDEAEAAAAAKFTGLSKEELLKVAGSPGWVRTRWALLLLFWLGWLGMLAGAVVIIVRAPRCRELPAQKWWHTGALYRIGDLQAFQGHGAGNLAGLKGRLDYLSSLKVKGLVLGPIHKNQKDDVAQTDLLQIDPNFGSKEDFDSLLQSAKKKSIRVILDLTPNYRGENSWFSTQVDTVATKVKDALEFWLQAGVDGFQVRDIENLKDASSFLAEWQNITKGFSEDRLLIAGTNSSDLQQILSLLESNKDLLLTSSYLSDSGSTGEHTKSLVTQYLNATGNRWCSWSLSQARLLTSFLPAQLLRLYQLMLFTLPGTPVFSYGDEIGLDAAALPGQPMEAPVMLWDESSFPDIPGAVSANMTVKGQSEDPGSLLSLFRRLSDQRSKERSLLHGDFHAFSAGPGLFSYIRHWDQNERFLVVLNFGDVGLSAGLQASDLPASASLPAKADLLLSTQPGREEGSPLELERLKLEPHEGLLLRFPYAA

Turning to `N[C@@H](Cc1c[nH]c2ccc(OCCF)cc12)C(=O)O` [5‐(2‐fluoroethoxy)‐L‐tryptophan], the LAT1 substrate properties result in assay [1] is “exhibit LAT1 substrate properties”.

With `N[C@@H](Cc1c[nH]c2ccccc12)C(=O)O` [L‐Trp, L‐tryptophan], the “[3H]-L-leucine efflux from preloaded HT-29 cells / substrate for LAT1-mediated transport” value in assay [2] is “elicited clear [^3H]‐L‐leucine efflux”.
